Target: ARL3 (Homo sapiens, UniProt P36405)
Experiment: microscale thermophoresis (Monolith NT.[…])
Format: binding

ARL3, sequence (P36405 2-182): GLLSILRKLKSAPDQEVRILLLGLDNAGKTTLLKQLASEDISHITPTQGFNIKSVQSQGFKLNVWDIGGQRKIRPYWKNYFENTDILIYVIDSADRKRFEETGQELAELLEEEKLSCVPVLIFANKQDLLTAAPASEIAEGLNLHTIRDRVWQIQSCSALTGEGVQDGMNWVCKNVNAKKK

- Kd: 12 µM
Compound: Cc1c(-c2ccc(N3CCc4cccc(C(=O)Nc5nc6ccccc6s5)c4C3)nc2C(=O)O)cnn1CC12CC3CC(CC(C3)C1)C2 [A-1331852]
